Data as given in US9540649B2, “Method for opening tight junctions” (The Provost, Fellows and Scholars of the College of the …, priority 2007, dated 2017).
“Also recorded” adds a separate entry of the source.

How the values were obtained:
IMPDH−/− mice = experiment: Electroretinographic analysis of IMPDH−/− mice after claudin-5 suppression and GTP injection; format: in vivo
Experimental: IMPDH−/− mice that had received a hydrodynamic injection of siRNA targeting claudin-5 were dark-adapted overnight and prepared for electroretinography under dim red light. Pupillary dilation was carried out by installation of 1% cyclopentalate and 2.5% phenylephrine. Animals were anesthetized by intraperitoneal injection of ketamine (2.08 mg per 15 g body weight) and xylazine (0.21 mg per 15 g body weight). Once the animal was anaesthetized, GTP was injected intraperitoneally. The ERG commenced ten minutes after administration of anesthetic. Standardised flashes of light were presented to the mouse in a Ganzfeld bowl to ensure uniform retinal illumination. The ERG responses were recorded simultaneously from both eyes by means of gold wire electrodes (Roland Consulting Gmbh) using Vidisic (Dr Mann Pharma, Germany) as a conducting agent and to maintain corneal hydration. The eye was maintained in a proposed position throughout the examination by means of a small plastic band placed behind the globe. Reference and ground electrodes were positioned subcutaneously, approximately 1 mm from the temporal canthus and anterior to the tail respectively. Body temperature was maintained at 37° C. using a heating device controlled by a rectal temperature probe. Responses were analysed using a RetiScan RetiPort electrophysiology unit (Roland Consulting Gmbh). The protocol was based on that approved by the International Clinical Standards Committee for human electroretinography.

C57/Bl6 mice = experiment: Behavioural output after TRH injection in claudin-5 suppressed mice; format: in vivo
Experimental: The protocol of Example 1 was followed to produce transiently claudin-5 suppressed mice. 48 hours post-delivery of siRNA targeting claudin-5 or a non-targeting siRNA, a 200 μl of a solution containing 20 mg/kg Thyrotropin Releasing Hormone (TRH) was injected to the claudin-5 suppressed mice. TRH was injected in the tail vein and immediately, the behavioural output of mice was assessed by filming them in a clear Perspex box.

claudin-12 = experiment: Claudin-12 staining in brain microvasculature after claudin-12 siRNA; format: in vivo, C57/Bl-6 mice; details: 48 hours post-injection; vs non-targeting control siRNA
claudin-1 = experiment: Western blot analysis of claudin-1 expression after hydrodynamic tail vein delivery of claudin-1 siRNA; format: in vivo, C57/Bl-6 mice
occludin [1] = experiment: Occludin immunohistochemistry in brain microvasculature after occludin siRNA; format: in vivo, C57/Bl-6 mice; details: 48 hour time-point
occludin [2] = experiment: Western blot analysis of occludin expression after hydrodynamic tail vein delivery of occludin siRNA; format: in vivo, C57/Bl-6 mice
BBB = BBB permeability (albumin, immunoglobulin, Hoechst) following suppression of occludin; format: in vivo, C57/Bl-6 mice; details: for albumin extravasation, immunohistochemistry in brain vibratome sections: 24 hours post-injection; for passage of mouse immunoglobulins (IgG) into the brain: following suppression of occludin
Description: The protocols used were identical to the protocols used in Example 1.

[3] = 48 hours post injection, vs non-targeting siRNA

Question: With `Nc1nc2c(ncn2[C@@H]2O[C@H](COP(=O)(O)OP(=O)(O)OP(=O)(O)O)[C@@H](O)[C@H]2O)c(=O)[nH]1` [GTP] as the compound, how does the “ERG rod response b-wave, left eye” value (IMPDH−/− mice; 11 month old IMPDH−/− mouse, after suppression of claudin-5 and GTP i.p., 2.48 uV before) read?
Answer: 121 uV

Question: What about the “ERG rod response b-wave, right eye” value (IMPDH−/− mice; 11 month old IMPDH−/− mouse, after suppression of claudin-5 and GTP i.p., 50.8 uV before) of the same compound?
Answer: 193 uV

Question: What about the ERG rod tracings (IMPDH−/− mice; IMPDH−/− mice, after suppression of claudin-5 and GTP injection) of the same compound?
Answer: increase significantly

Question: What does the source list for `NC(=O)[C@@H]1CCCN1C(=O)[C@H](Cc1cnc[nH]1)NC(=O)[C@@H]1CCC(=O)N1` [TRH, Thyrotropin Releasing Hormone]?
Answer: duration of cessation of mobility relative to non-targeting control mice (C57/Bl6 mice; 20 mg/kg TRH tail vein, 48 hours post delivery of siRNA targeting claudin-5): ≤ 5 times; mobility / length of time mice remain immobile (C57/Bl6 mice; 20 mg/kg TRH, 48 hours post delivery of siRNA targeting claudin-5): significant cessation of mobility; also recorded: distinct increase in the length of time; delivery of TRH (359.5 Da) across the BBB (C57/Bl6 mice; BBB opened with siRNA targeting claudin-5): significantly enhanced

Question: With “CLDN12 siRNA (3): siRNA, target GUAACACGGCCUUCAAUUC; strands GUAACACGGCCUUCAAUUCUU and GAAUUGAAGGCCGUGUUACUU (SEQ ID No. 28, 29) (listed as RNA, chemistry not given here)” as the compound, how does the “claudin-12 expression at the microvessels of the brain, staining” value (claudin-12) read?
Answer: decreased

Question: With “CLDN12 siRNA (4): siRNA, target GGUCUUUACCUUUGACUAU; strands AAUCUUUACCUUUGACUAUUU and AUAGUCAAAGGUAAAGAUUUU (SEQ ID No. 30, 31) (listed as RNA, chemistry not given here)” as the compound, how does the “claudin-12 expression at the microvessels of the brain, staining” value (claudin-12) read?
Answer: decreased

Question: Which results are given for “claudin-1 siRNA (1): siRNA, target GCAAAGCACCGGGCAGAUA; sense AUAGACGGGCCACGAAACGUU, anti-sense CGUUUCGUGGCCCGUCUAUUU (SEQ ID NO: 9, 10) (listed as RNA, chemistry not given here)”?
Answer: claudin-1 expression, Western blot (claudin-1; 24 hours post-injection): not evident; claudin-1 expression, Western blot (claudin-1; 48 hours post-injection): significantly decrease claudin-1 expression

Question: “claudin-1 siRNA (2): siRNA, target GAACAGUACUUUGCAGGCA; sense ACGGACGUUUCAUGACAAGUU, anti-sense CUUGUCAUGAAACGUCCGUUU (SEQ ID NO: 11, 12) (listed as RNA, chemistry not given here)” was tested. Which “claudin-1 expression, Western blot” value (claudin-1; 24 hours post-injection) did it give?
Answer: decreased

Question: How did the “claudin-1 expression, Western blot” value (claudin-1; 24 hours post-injection) turn out when “claudin-1 siRNA (4): siRNA, target UUUCAGGUCUGGCGACAUU; sense UUACAGCGGUCUGGACUUUUU, anti-sense AAAGUCCAGACCGCUGUAAUU (SEQ ID NO: 13, 14) (listed as RNA, chemistry not given here)” was run?
Answer: decreased

Question: What about the “claudin-1 expression, Western blot” value (claudin-1; 48 hours post-injection) of the same compound?
Answer: suppression was only evident

Question: Which results are given for “occludin siRNA (1): siRNA, target GUUAUAAGAUCUGGAAUGU; sense UGUAAGGUCUAGAAUAUUGUU, anti-sense CAAUAUUCUAGACCUUACAUU (SEQ ID NO: 15, 16) (listed as RNA, chemistry not given here)”?
Answer: occludin staining pattern in brain microvasculature (occludin [1]): discontinuous pattern of staining was also evident; occludin expression, Western blot (occludin [2]; [3]): significantly decreased

Question: What does the source list for “occludin siRNA (2): siRNA, target GAUAUUACUUGAUCGUGAU; sense UAGUGCUAGUUCAUUAUAGUU, anti-sense CUAUAAUGAACUAGCACUAUU (SEQ ID NO: 17, 18) (listed as RNA, chemistry not given here)”?
Answer: occludin staining pattern in brain microvasculature (occludin [1]): discontinuous pattern of staining was also evident; occludin expression, Western blot (occludin [2]; [3]): significantly decreased

Question: “occludin siRNA (3): siRNA, target CAAAUUAUCGCACAUCAAG; sense GAACUACACGCUAUUAAACUU, anti-sense GUUUAAUAGCGUGUAGUUCUU (SEQ ID NO: 19, 20) (listed as RNA, chemistry not given here)” was tested. Which “occludin staining pattern in brain microvasculature” value (occludin [1]) did it give?
Answer: returned to levels similar to those observed in the non-targeting controls

Question: What about the “albumin extravasation, immunohistochemistry in brain vibratome sections” value (“albumin extravasation” below) (BBB) of the same compound?
Answer: extravascular albumin

Question: And the “albumin extravasation” value (BBB; listed as occludin siRNA 3)?
Answer: albumin deposition occurred

Question: What about the “passage of mouse immunoglobulins (IgG) into the brain” value (BBB) of the same compound?
Answer: no extravasation of immunoglobulins

Question: “occludin siRNA (4): siRNA, target AGAUGGAUCGGUAUGAUAA; sense AAUAGUAUGGCUAGGUAGAUU, anti-sense UCUACCUAGCCAUACUAUUUU (SEQ ID NO: 21, 22) (listed as RNA, chemistry not given here)” was tested. Which “occludin staining pattern in brain microvasculature” value (occludin [1]) did it give?
Answer: returned to levels similar to those observed in the non-targeting controls

Question: What about the “occludin expression, Western blot” value (occludin [2]; 24 hours post injection) of the same compound?
Answer: decrease

Question: And the “albumin extravasation” value (BBB)?
Answer: extravascular albumin

Question: What about the “albumin extravasation” value (BBB; listed as occludin siRNA 4) of the same compound?
Answer: albumin deposition occurred

Question: What about the “passage of mouse immunoglobulins (IgG) into the brain” value (BBB) of the same compound?
Answer: no extravasation of immunoglobulins
